Results taken from article PMC7673538 (PLoS Biology, 2020).
Where two headings read alike, the source gives them in different places.

Tests used:
CV-B3 [1] = test: microbe, parasite or virus in culture; type: cell-based, coxsackievirus B3; details: Enterovirus B, CVB3, BGM
in vitro [2] = details: monkey
EV-D68 = test: microbe, parasite or virus in culture; type: cell-based, enterovirus D68; details: Enterovirus D
CV-A24 = test: microbe, parasite or virus in culture; type: cell-based, coxsackievirus A24; details: Enterovirus C, CVA24, HeLa R19, read-out: EC50 CV-A24
in vitro [3] = details: human
PV-1 = test: microbe, parasite or virus in culture; type: cell-based, poliovirus 1; details: Enterovirus C, HeLa R19, read-out: EC50 PV-1
HRV-A2 = test: microbe, parasite or virus in culture; type: cell-based, human rhinovirus; details: Human rhinovirus sp., HRVA2, HeLa R19, read-out: EC50 HRV-A2
CV-B3 [4] = test: microbe, parasite or virus in culture; type: cell-based, coxsackievirus B3; details: for EC50: Enterovirus B
in vitro [5] = details: human; remark: listed apart in the source
EV-A71 = test: microbe, parasite or virus in culture; type: cell-based, enterovirus A71; details: Enterovirus A
CV-B3 [6] = test: microbe, parasite or virus in culture; type: cell-based, coxsackievirus B3; details: Enterovirus B
HRV-B14 = test: microbe, parasite or virus in culture; type: cell-based, human rhinovirus; details: Human rhinovirus sp.
[7] = EVD68, HeLa R19, read-out: EC50 EV-D68
[8] = EVD68, HeLa R19, read-out: EC50 Exp1
[9] = EVD68, HeLa R19, read-out: EC50 Exp2
[10] = CVB3, HeLa R19, read-out: CV-B3 EC50 Average
[11] = CVB3, HeLa R19, read-out: CV-B3 Exp 1 EC50
[12] = CVB3, HeLa R19, read-out: CV-B3 Exp2 EC50
[13] = CVB3, HeLa R19, read-out: EC50 HelaR19 Average
[14] = CVB3, HeLa R19, read-out: Exp 1 EC50 HelaR19
[15] = CVB3, HeLa R19, read-out: Exp 2 EC50 HelaR19
[16] = EVA71, HeLa R19, read-out: EC50 EV-A71
[17] = CVB3, HAP1, read-out: EC50 Hap1 Average
[18] = CVB3, HAP1, read-out: Exp 2 EC50 Hap1
[19] = HRVB14, HeLa R19, read-out: EC50 HRV-B14
[20] = CVB3, HAP1, read-out: Exp 1 EC50 Hap1

Compound	EC50 (CV-B3 [1]; read-out: EC50 BGM Average) [µM]	EC50 (CV-B3 [1]; read-out: Exp 1 EC50 BGM) [µM]	CC50 (in vitro [2]; CC50 BGM Average) [µM]	CC50 (in vitro [2]; Exp 1 CC50 BGM) [µM]	CC50 (in vitro [2]; Exp 2 CC50 BGM) [µM]	EC50 (EV-D68; [7]) [µM]	EC50 (EV-D68; [8]) [µM]	EC50 (EV-D68; [9]) [µM]	EC50 (CV-A24) [µM]	CC50 (in vitro [3]; CC50 Average) [µM]	CC50 (in vitro [3]; CC50 HelaR19 Average) [µM]	CC50 (in vitro [3]; Exp 1 CC50) [µM]	CC50 (in vitro [3]; Exp 1 CC50 HelaR19) [µM]	CC50 (in vitro [3]; Exp2 CC50) [µM]	CC50 (in vitro [3]; Exp 2 CC50 HelaR19) [µM]	EC50 (PV-1) [µM]	EC50 (HRV-A2) [µM]	EC50 (CV-B3 [4]; [10]) [µM]	EC50 (CV-B3 [4]; [11]) [µM]	EC50 (CV-B3 [4]; [12]) [µM]	other results
O=C(c1ccco1)N(Cc1ccccc1)c1ccc(C(F)(F)F)cc1 [Compound 19i, N-benzyl-N-(4-(trifluoromethyl)phenyl)furan-2-carboxamide]	1.71	1.42	55.4	55.3	55.5	3.35 ± 0.19	3.16	3.54	> 30	> 30	68.5	> 30	68	> 30	69	> 30	> 30	2.45	2.35	2.55	EC50 (CV-B3 [1]; read-out: Exp 2 EC50 BGM): 1.99 µM; CC50 (in vitro [2]; CC50): 55.4 ± 0.05 µM; effect of the substitution on antiviral activity against CV-B3 (in words) (CV-B3 [4]): had little effect; EC50 (CV-B3 [4]; CVB3, HeLa): 2.75 ± 0.25 µM; EC50 (CV-B3 [4]; [13]): 2.78 µM; EC50 (CV-B3 [4]; [14]): 2.52 µM; EC50 (CV-B3 [4]; [15]): 3.03 µM; CC50 (in vitro [5]; CC50): > 100 µM; CC50 (in vitro [5]; CC50 Hap1 Average): > 100 µM; CC50 (in vitro [5]; Exp 1 CC50 Hap1): > 100 µM; CC50 (in vitro [5]; Exp 2 CC50 Hap1): > 100 µM; cytotoxicity (in words) (HeLa R19 cells; human, monkey): cytotoxicity in a similar range as the parental compound 1; EC50 (EV-A71; [16]): > 30 µM; EC50 (CV-B3 [6]; CVB3, HAP1): 1.75 ± 0.29 µM; EC50 (CV-B3 [6]; [17]): 1.74 µM; EC50 (CV-B3 [6]; [18]): 2.03 µM; EC50 (HRV-B14; [19]): > 30 µM
COc1ccc(N(Cc2ccc(C(F)(F)F)cc2)C(=O)c2ccco2)cc1 [Compound 19e, N-(4-Methoxyphenyl)-N-(4-(trifluoromethyl)benzyl)furan-2-carboxamide]	2.41	2.05	55.9	55	56.9	4.47 ± 0.26	4.72	4.21	> 30	> 30	54	> 30	53	> 30	55	> 30	> 30	0.86	0.73	0.98	EC50 (CV-B3 [1]; read-out: Exp 2 EC50 BGM): 2.76 µM; effect of the substitution on antiviral activity against CV-B3 (in words) (CV-B3 [4]): only marginally affected antiviral activity; EC50 (CV-B3 [4]; [13]): 0.93 µM; EC50 (CV-B3 [4]; [15]): 0.99 µM; CC50 (in vitro [5]; CC50 Hap1 Average): 54.9 µM; CC50 (in vitro [5]; Exp 1 CC50 Hap1): 55.3 µM; CC50 (in vitro [5]; Exp 2 CC50 Hap1): 54.5 µM; cytotoxicity (in words) (HeLa R19 cells; human, monkey): cytotoxicity in a similar range as the parental compound 1; EC50 (EV-A71; EVA71, HeLa R19, read-out: EC50 Average): 4.07 µM; EC50 (EV-A71; [16]): 4.08 ± 0.99 µM; EC50 (EV-A71; EVA71, HeLa R19, read-out: EC50 Exp1): 3.09 µM; EC50 (EV-A71; EVA71, HeLa R19, read-out: EC50 Exp2): 5.06 µM; EC50 (CV-B3 [6]; [17]): 2.85 µM; EC50 (CV-B3 [6]; [20]): 2.14 µM; EC50 (CV-B3 [6]; [18]): 3.56 µM; EC50 (HRV-B14; HRVB14, HeLa R19, read-out: EC50 Exp1): 7.9 µM; EC50 (HRV-B14; HRVB14, HeLa R19, read-out: EC50 Exp2): 8.86 µM; EC50 (HRV-B14; [19]): 8.38 ± 0.48 µM
COc1ccc(N(Cc2ccccc2)C(=O)c2ccco2)cc1 [Compound 19c, N-Benzyl-N-(4-methoxyphenyl)furan-2-carboxamide]	4.3	3.95	> 100	> 100	> 100	8.94 ± 0.82	8.12	9.76	> 30	> 30	> 100	> 30	> 100	> 30	> 100	> 30	> 30	4.07	4.32	3.82	CC50 (in vitro [2]; CC50): > 100 µM; increase or decrease of antiviral activity against CV-B3 (CV-B3 [4]): less than 3 fold; EC50 (CV-B3 [4]; CVB3, HeLa): 4.42 ± 0.36 µM; EC50 (CV-B3 [4]; [13]): 4.41 µM; EC50 (CV-B3 [4]; [14]): 4.06 µM; EC50 (CV-B3 [4]; [15]): 4.77 µM; CC50 (in vitro [5]; CC50): > 100 µM; CC50 (in vitro [5]; CC50 Hap1 Average): > 100 µM; CC50 (in vitro [5]; Exp 1 CC50 Hap1): > 100 µM; CC50 (in vitro [5]; Exp 2 CC50 Hap1): > 100 µM; cytotoxicity (in words) (HeLa R19 cells): did not show any cytotoxicity; EC50 (EV-A71; [16]): > 30 µM; EC50 (CV-B3 [6]; [17]): 2.12 µM; EC50 (CV-B3 [6]; [20]): 2.15 µM; EC50 (CV-B3 [6]; [18]): 2.09 µM; EC50 (HRV-B14; [19]): > 30 µM
COc1ccc(N(Cc2ccc(F)cc2)C(=O)c2ccccn2)cc1 [Compound 5e, N-(4-fluorobenzyl)-N-(4-methoxyphenyl)picolinamide]	17.8	16.7	> 100	> 100	> 100	10.5 ± 1.37	11.8	9.08	> 30	> 30	> 100	> 30	> 100	> 30	> 100	> 30	> 30	6.44	6.02	6.86	EC50 (CV-B3 [1]; read-out: Exp 2 EC50 BGM): 18.9 µM; CC50 (in vitro [2]; CC50): > 100 µM; EC50 (CV-B3 [4]; [13]): 8.87 µM; EC50 (CV-B3 [4]; [14]): 8.41 µM; EC50 (CV-B3 [4]; [15]): 9.32 µM; CC50 (in vitro [5]; CC50): > 100 µM; CC50 (in vitro [5]; CC50 Hap1 Average): > 100 µM; CC50 (in vitro [5]; Exp 1 CC50 Hap1): > 100 µM; CC50 (in vitro [5]; Exp 2 CC50 Hap1): > 100 µM; cytotoxicity (in words) (HeLa R19 cells): no cytotoxicity; EC50 (EV-A71; [16]): > 30 µM; EC50 (CV-B3 [6]; CVB3, HAP1): 15.8 ± 1.65 µM; EC50 (CV-B3 [6]; [17]): 15.9 µM; EC50 (CV-B3 [6]; [20]): 17.5 µM; EC50 (CV-B3 [6]; [18]): 14.2 µM; EC50 (HRV-B14; [19]): > 30 µM
